Here are results for two molecules from US12661355B2, “Compounds and methods for inducing UCP1 expression” (The Regents of the University of California, priority 2020, dated 2026).

In one test the test system is Ucp1. The test is described as follows: Gene expression by qPCR in immortalized brown adipocytes. The test is classed as cell-based, mouse. The procedure: Primary brown adipocytes were isolated according to known methods. An established mouse brown adipocyte cell line was obtained from Dr. Bruce Spiegelman (Dana-Farber Cancer Institute, Boston, USA). To differentiate primary and immortalized brown adipocytes, cells were grown until confluency in DMEM containing 10% FBS, 25 mM glucose 1 mM pyruvate, 2 mM glutamine, 20 nM insulin, 1 nM T3, and antibiotics. Once confluent (day 0), differentiation was induced by supplementing the medium with 0.5 mM IBMX, 0.5 μM dexamethasone, and 0.125 mM indomethacin, for 2 days. Differentiation was continued in the original medium (without IBMX, dexamethasone and indomethacin) for 7-10 days.
TScreening was conducted at the UCLA Molecular Screening Shared Resource using automated instruments Immortalized brown adipocytes were differentiated in T225 flasks and plated in Matrix 384-well plates (26,000 cells per well) with white flat bottom (ThermoScientific) using trypsin and collagenase type II (Sigma C6885). The small molecule libraries screened were a BioMol library (204 compounds), an FDA-approved drug library (1120 compounds), a Microsource spectrum collection (2000 compounds), and a druggable compound set (8000 compounds). Molecules were delivered at 10 μM final concentration in DMSO. The screen was performed in duplicate on different days. After 18 h, luciferase activity was measured with Bright-Glo luciferase assay system and an LJL instrument. Data were normalized to the basal response (100% activity) in the presence of DMSO. Following the primary screen, 92 molecules were selected for validation and used to treat brown adipocyte cells plated in a 96-well plate overnight. RNA was extracted with an SV 96 Total RNA Isolation System (Promega). Compounds used for follow-up studies were identified using search tools available from Molport (molport.com), and ordered from the same company.
RNA levels were measured by qPCR according to known methods. Briefly, RNA was extracted with TRIzol (Invitrogen) and reverse transcribed with iScript (Bio-Rad). Real-time PCR analysis was performed with a CFX Connect (Bio-Rad).
Mouse RNA levels were measured by qPCR according to known methods. Data were normalized to B2m and Tbp reference genes. Human RNA was extracted using an RNA Mini Plus kit (Zymo) and gene expression determined by Taqman assay. The 1-step qPCR was run on a QuantStudio 12K Flex Real Time PCR System (ThermoFisher) using the following protocol: 50° C. for 5 minutes, 95° C. for 20 seconds, 40 cycles of 95° C. for 15 seconds and 60° C. for 60 seconds. Data were normalized to PPIA and PSMB2 reference genes. For global gene expression analysis, RNA isolated from brown adipocytes treated with compounds as indicated (four biological replicates) was hybridized to Illumina mouse Ref 8 V2.0 bead chips at the University of California, Los Angeles Neuroscience Genomics Core as previously described. Data were processed with GenomeStudio V2011.1 using the quantile normalization, background subtraction, and a present call of P<0.05.
(Real-time PCR tracks product formation cycle by cycle.)

In test [1] the target is T1, AKAP1 and the PKA subunits (Mus musculus, UniProt O08715).
T1 construct: Immortalized brown adipocyte cells were differentiated for 10 days and treated with 10 μM AST070 or Z160 for 7 h; endogenous in cells; host or cells: immortalized mouse brown adipocytes
The test can be described thus: Co-immunoprecipitation of PKA C-α and PKA RII-β with AKAP1. The conditions noted are these: brown adipocytes, 10 μM for 7 h. The test is classed as cell-based. The procedure: Immortalized brown adipocyte cells were differentiated for 10 days and treated with 10 μM AST070 or Z160 for 7 h. Cells were lysed in 150 mM NaCl, 50 mM Tris pH 7.5, 1% Nonidet P40, 0.5% Na-deoxycholate containing protease and phosphatase inhibitors. Cell lysates were incubated overnight at 4° C. with 2 μl of anti-AKAP1 antibody. Twenty microliter of Protein A/G PLUS agarose beads (Santa Cruz Biotechnologies) were added for 2 h at 4° C. After a initial wash (500 mM NaCl, 50 mM Tris pH 7.5, 0.1% Nonidet P40, 0.05% Na-deoxycholate) and a final wash (10 mM Tris pH 7.5, 0.1% Nonidet P40, 0.05% Na-deoxycholate), proteins were eluted from the beads with 1× loading buffer and 2% β-mercaptoethanol, boiled for 10 min and analyzed by Western blot. To avoid detecting the IgG heavy chain, TidyBlot Western Blot reagent:HRP (Bio-Rad) at 1:100 was used as secondary antibody to reveal the PKA subunits from the co-immunoprecipitation blot.
AKAP1 is known to localize PKA to the surface of mitochondria and to relay cAMP signaling for mitochondrial functions. Inspired by this information, an inquiry as to whether treatment with the reported compounds could alter the binding of AKAP1 to mitochondria was undertaken. Analysis began by treating brown adipocytes with Z160 and isolated mitochondria at different times. […]

Test [2] concerns the target T2, cGMP-dependent kinase 1 (PKG-1) (Mus musculus, UniProt P0C605).
T2 construct: endogenous in cells; host or cells: immortalized mouse brown adipocytes
The test is described as follows: CETSA in brown adipocytes, PKG-1. Format: binding. The conditions noted are these: 10 μM for 8 h. As for the experimental part: CETSA assays were performed according to known methods. Briefly, differentiated brown adipocytes (one 10 cm dish per treatment) were treated with vehicle or compounds, trypsinized, counted, and re-suspended in approximately 450 μl PBS containing protease inhibitors (volumes were adjusted to have the same number of cells in each treatment). For each sample, 18 μl was distributed into each of 7 PCR tubes. Samples were heated using a thermocycler with a temperature gradient (iCycler, Biorad) for 3 min, followed by 3 min at room temperature, and then snap-frozen in liquid N2. After two freeze-thaw cycles, samples were centrifuged at 20,000 g for 15 min at 4° C., and the supernatants were transferred to another set of tubes. Proteins were analyzed by immunoblotting.
The potential interaction of Z160 with PKA subunits and AKAPs was assessed first by identifying which PKA subunits and AKAP isoforms are normally present in BAT. […] To perform the CETSA assays, cultured brown adipocytes were incubated with 10 μM Z160 for 8 h, after which the thermal shift was analyzed by Western blot.

Where [3] appears, read: immortalized brown adipocytes, 10 μM.

Each structure is given as a SMILES string.

T2 sequence (P0C605 whole entry): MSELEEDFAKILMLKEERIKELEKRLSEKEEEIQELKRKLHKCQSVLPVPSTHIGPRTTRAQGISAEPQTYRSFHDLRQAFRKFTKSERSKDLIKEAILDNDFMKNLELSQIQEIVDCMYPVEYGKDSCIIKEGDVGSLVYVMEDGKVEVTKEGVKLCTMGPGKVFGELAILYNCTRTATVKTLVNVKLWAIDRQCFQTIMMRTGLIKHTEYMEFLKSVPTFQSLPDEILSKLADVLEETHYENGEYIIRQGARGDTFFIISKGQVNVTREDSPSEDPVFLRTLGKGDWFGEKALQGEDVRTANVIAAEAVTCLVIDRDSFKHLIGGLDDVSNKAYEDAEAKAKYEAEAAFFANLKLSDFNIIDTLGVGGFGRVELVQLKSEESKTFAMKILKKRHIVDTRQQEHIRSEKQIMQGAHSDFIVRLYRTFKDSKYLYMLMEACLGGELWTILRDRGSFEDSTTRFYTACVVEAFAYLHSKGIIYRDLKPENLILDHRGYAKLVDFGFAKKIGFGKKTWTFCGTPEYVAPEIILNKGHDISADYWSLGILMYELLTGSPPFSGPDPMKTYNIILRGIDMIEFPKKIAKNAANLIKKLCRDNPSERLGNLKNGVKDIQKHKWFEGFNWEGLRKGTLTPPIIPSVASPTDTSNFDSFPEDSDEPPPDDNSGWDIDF

As for `O=C(CSc1nc2ccccc2c(=O)[nH]1)Nc1ccc2c(c1)OCCO2` [AST070, N-(2,3-dihydro-1,4-benzodioxin-6-yl)-2-[(4-oxo-3,4-dihydroquinazolin-2-yl)sulfanyl]acetamide], the Ucp1 expression induction result in the test with Ucp1 (1 μM compared with 10 μM) is “lower induction”. Moreover, in the test on Ucp1 (10 μM), the “duration of effect on Ucp1 expression” value is listed as “at least 24 h” and the “earliest time at which effect on Ucp1 expression was observed” value stood at 5 h. In the test on Ucp1 (setting [3]), the “expression of markers of brown adipocyte identity, mitochondrial function and fatty acid oxidation genes” value is “promoted expression”. In addition, in the test with Ucp1 (titration, overnight treatment), the “concentration of optimal Ucp1 expression induction” value amounted to 10 µM. Further, the “signal for PKA subunit precipitation by AKAP1” value in test [1] was “slightly enhanced”.

With `COc1ccc(NC(=O)CSc2nc3ccccc3c(=O)[nH]2)c(OC)c1` [Z160], the “heat stability of PKG-1” value in test [2] is “did not influence the heat stability”. Further, in the test with Ucp1 (10 μM), the “potency on Ucp1 induction compared with AST070” value is on record as “greater potency than AST070”. Besides, in the test with Ucp1 (setting [3]), the “expression of markers of brown adipocyte identity, mitochondrial function and fatty acid oxidation genes” value is given as “promoted expression”. For the same molecule, the “expression of lipolytic enzymes (Atgl, Hsl) and FGF21 at the mRNA level” value in the test on Ucp1 (immortalized brown adipocytes, 10 μM overnight) was “increased expression”. In addition, the “signal for PKA subunit precipitation by AKAP1” value in test [1] is recorded as “slightly enhanced”.
